Read-outs that look alike come from different tables or passages of the source.
What was measured:
[1] = test system: L. braziliensis amastigote forms; assay: In vitro activity against amastigote forms in J774.2 macrophages; type: cell-based; settings: for Selectivity Index Amastigote Forms: J774.2 Macrophage IC50/Parasite IC50; for IC50: in J774.2 macrophages, means of three separate experiments, read-out: Compound IC50 Amastigote Forms
Method: (§1) A similar method was used for the amastigote assay. First, J774.2 macrophages were harvested in 24-well microplates with round coverslips at the bottom, where cells will attach. Once cells are fixated, they are infected with promastigotes (10 per each macrophage cell) and compounds were added to reach the same final concentrations as in the previous experiment. After one day, promastigotes transform into amastigotes and microplates are maintained for two days at 37 °C. Once that time is elapsed, coverslips are collected and fixated to a microscope slide and dyed with Giemsa. Amastigotes are then counted using a microscope from a total of 200 random macrophages.

[2] = test system: L. infantum amastigote forms; assay: as above; type: cell-based; settings: for Selectivity Index Amastigote Forms: J774.2 Macrophage IC50/Parasite IC50; for IC50: in J774.2 macrophages, means of three separate experiments, read-out: Compound IC50 Amastigote Forms
Method: as §1

L. braziliensis [3] = assay: Infectivity assay in J774.2 macrophages; type: cell-based; settings: test dosage IC25, 10 days
Description: Following a similar method as the described one in the amastigote experiment, macrophages were harvested and infected with promastigotes in their stationary phase. The test dosage was IC25 for this experiment. The coverslips were collected every 2 days for 10 days and counted in order to determine if drugs affected promastigote infection and amastigote division within the cells by measuring the infection rate (percentage of infected cells) and amastigote number per infected cell.

[4] = test system: J774.2 macrophage cell line; assay: Macrophage cytotoxicity; type: cell-based; settings: J774.2 macrophages, means of three separate experiments, read-out: Macrophage Toxicity IC50
Description: Macrophages are cells naturally infected by Leishmania parasites. For that reason, they were used as host cell models, specifically the J774.2 macrophage cell line [European Collection of Authenticated Cell Cultures (ECACC) number 91051511]. Cells were used to test the cytotoxicity of the new compound (establishing IC50 via testing different drug concentrations on cells) and they were used for parasite infectivity assays.

[5] = test system: L. braziliensis promastigote forms; assay: In vitro activity against promastigote forms; type: cell-based; settings: for Selectivity Index Promastigote Forms: J774.2 Macrophage IC50/Parasite IC50; for IC50: 48 h, 27 °C, means of three separate experiments, read-out: Compound IC50 Promastigote Forms
Method: (§2) Three Leishmania species were studied, each one as a pathogenic agent for each clinical form: L. donovani for VL, L. infantum for CL, and L. braziliensis for ML.
(§3) In order to perform this experiment, promastigotes were harvested in 24-well microplates and different drug concentrations were added in order to reach 12.5, 25, 50, and 100 µM and maintained at 27 °C for 48 h. They were counted after that time was elapsed in a Neubauer haemocytrometric chamber.

[6] = test system: L. donovani promastigote forms; assay: In vitro activity against promastigote forms; type: cell-based; settings: for Selectivity Index Promastigote Forms: J774.2 Macrophage IC50/Parasite IC50; for IC50: 48 h, 27 °C, means of three separated experiments, read-out: Compound IC50 Promastigote Forms
Method: as §2, §3

[7] = test system: L. infantum promastigote forms; assay: In vitro activity against promastigote forms; type: cell-based; settings: for Selectivity Index Promastigote Forms: J774.2 Macrophage IC50/Parasite IC50; for IC50: 48 h, 27 °C, means of three separate experiments, read-out: Compound IC50 Promastigote Forms
Method: as §2, §3

L. braziliensis [8] = assay: Metabolite excretion (1H-NMR of supernatants); type: cell-based; settings: IC25, 72 h, vs untreated
Description: (§4) Active compounds can trigger metabolic alterations within parasite mitochondria. Those alterations can be proven by observing alterations in the excreted metabolites quantity. Trypanosomatids excrete different metabolites to the medium in order to get rid of the carbonate skeleton instead of oxidizing glucose to CO2 and water as vertebrates do. Each metabolite is produced in a certain area of the mitochondrion and by a certain enzyme, thus, it can be inferred that these particular zones or enzymes are being affected by drug action. For this experiment, cultures of each species with an initial concentration of 5 × 10^5 cells/mL were stored at 27 °C for 72 h with IC25 as the test dosage. After this time elapsed, cultures were centrifuged at 400× g for 10 min and supernatants were collected and examined by ^1H-NMR.

L. infantum = assay: Metabolite excretion (1H-NMR of supernatants); type: cell-based; settings: IC25, 72 h, vs untreated
Description: as §4

[9] = test system: L. donovani amastigote forms; assay: In vitro activity against amastigote forms in J774.2 macrophages; type: cell-based; settings: for Selectivity Index Amastigote Forms: J774.2 Macrophage IC50/Parasite IC50; for IC50: in J774.2 macrophages, means of three separated experiments, read-out: Compound IC50 Amastigote Forms
Method: as §1

L. donovani = assay: Metabolite excretion (1H-NMR of supernatants); type: cell-based; settings: IC25, 72 h, vs untreated
Description: as §4

L. infantum Fe-SOD = assay: SOD inhibition assay (Beyer and Fridovich method); type: biochemical; settings: L. infantum excreted Fe-SOD
Description: Superoxide dismutase (SOD) is a key enzyme for cell survival against oxidative stress. Host cells induce oxidative bursts to create reactive oxygen species (ROS) within parasite cells that are toxic to them. For that reason, Leishmania cells rely on SOD to counteract this defense. While vertebrate SOD is linked to a copper, zinc (Cu/Zn-SOD), or manganese atom (Mn-SOD), trypanosomatid SOD is linked to an iron atom (Fe-SOD). This difference makes SOD a perfect target for drugs: if they are able to reduce its activity, cell survival will be compromised. For testing, if drugs are able to reduce this enzymatic activity, promastigotes are largely harvested and then stressed in the same culture medium without calf serum, in order to trigger stress and make them excrete SOD. This SOD is collected and semi-purified by a method described in Martín-Montes et al. 2017 [10]. Excreted Fe-SOD was mixed with the different reagents of the Beyer and Fridovich method and measured in a UV spectrophotometer twice. The second measurement took place after 10 min under direct light and constant stirring. Commercial human SOD (Cu/Zn-SOD) (Sigma®, St. Louis, MO, USA) activity was also measured for comparison.

IC50 ([5]; Leishmania braziliensis) [µM] | IC50 ([6]; Leishmania donovani) [µM] | IC50 ([7]; Leishmania infantum) [µM] | Molecule | IC50 ([4]; Mus musculus) [µM] | Selectivity Index Promastigote Forms [5] | Selectivity Index Promastigote Forms [6] | Selectivity Index Promastigote Forms [7] | further results
5.8 ± 0.2 | 25 ± 0.8 | 13 ± 0.4 | c1c2n[nH]c1CNCCNCCCNCCNC2 [PZ232] | 674 ± 66.3 | 116 | 27 | 52 | Selectivity Index Amastigote Forms [1]: 421; IC50 ([1]; Leishmania braziliensis): 1.6 ± 0.6 µM; Selectivity Index Amastigote Forms [2]: 138; IC50 ([2]; Leishmania infantum): 4.9 ± 0.4 µM; Amastigote number/infected cell, percentage in plot key (reduction vs control) (L. braziliensis [3]): 32.4%; Acetate production and excretion variation (L. braziliensis [8]): -38.64%; D-lactate production and excretion variation (L. braziliensis [8]): -38.98%; L-alanine production and excretion variation (L. braziliensis [8]): -37.91%; Pyruvate production and excretion variation (L. braziliensis [8]): -35.69%; Succinate production and excretion variation (L. braziliensis [8]): -37.83%; Acetate production and excretion variation (L. infantum): -11.80%; D-lactate production and excretion variation (L. infantum): -11.58%; L-alanine production and excretion variation (L. infantum): -13.15%; Pyruvate production and excretion variation (L. infantum): -14.03%; Succinate production and excretion variation (L. infantum): -16.36%
15.7 ± 0.5 | 1.4 ± 0.3 | 70 ± 0.7 | c1c2n[nH]c1CNCCCNCCCNCCCNC2 [PZ333] | 985 ± 72.8 | 63 | 704 | 14 | Selectivity Index Amastigote Forms [9]: 579; IC50 ([9]; Leishmania donovani): 1.7 ± 0.5 µM; Acetate production and excretion variation (L. donovani): 33.66%; D-lactate production and excretion variation (L. donovani): 29.85%; L-alanine production and excretion variation (L. donovani): 32.65%; Pyruvate production and excretion variation (L. donovani): 37.88%; Succinate production and excretion variation (L. donovani): 42.10%
29.2 ± 0.8 | 28.4 ± 0.6 | 56.7 ± 2.6 | c1cc2nc(c1)CNCCCNCCCCNC2 [Py34] | 569 ± 45.8 | 19 | 20 | 10 | –
26.2 ± 1.1 | 0.2 | 30.4 ± 1.4 | c1cc2nc(c1)CNCCCNCCCNCCCNC2 [Py333] | 310 ± 43.8 | 12 | 1549 | 10 | Selectivity Index Amastigote Forms [9]: 18; IC50 ([9]; Leishmania donovani): 16.8 ± 0.5 µM
291 ± 3.8 | 52.5 ± 2.1 | 192 ± 5.8 | c1cc2nc(c1)CNCCCNCCNCCNCCCNC2 [Py3223] | 165 ± 4.9 | 1 | 3 | 1 | –
442 ± 5.8 | 1000 ± 78.4 | 93.4 ± 3.7 | c1cc2nc(c1)CNCCCNCCNCCNCCNCCCNC2 [Py32223] | 57.7 ± 1.9 | – | – | 1 | –
1630 ± 76.4 | 130 ± 9.5 | 90.6 ± 3.8 | c1cc2nc(c1)CNCCCNCCNCCCNCCNCCCNC2 [Py32323] | 85.4 ± 4.6 | – | 1 | 1 | –
507 ± 8.3 | 583 ± 6.9 | 484 ± 10.7 | c1cc2nc(c1)CNCCCNCCCNCCNCCCNCCCNC2 [Py33233] | 1290 ± 77.5 | 3 | 2 | 3 | –
36.5 ± 1.1 | 70.5 ± 5.2 | 8.51 ± 0.6 | c1cc2nc(c1)CNCCCNCCCNCCCNCCCNCCCNC2 [Py33333] | 1500 ± 75.3 | 41 | 21 | 176 | Fe-SOD activity inhibition (in words) (L. infantum Fe-SOD): no inhibition; Selectivity Index Amastigote Forms [2]: 882; IC50 ([2]; Leishmania infantum): 1.7 ± 0.2 µM; Acetate production and excretion variation (L. infantum): -20.61%; D-lactate production and excretion variation (L. infantum): -19.58%; L-alanine production and excretion variation (L. infantum): -19.83%; Pyruvate production and excretion variation (L. infantum): -22.89%; Succinate production and excretion variation (L. infantum): -20.30%
91.7 ± 3.7 | 171 ± 10.4 | 205 ± 30.7 | c1cc2cc(c1)CNCCNCCCNCCNC2 [mB232] | 667 ± 88.5 | 7 | 4 | 3 | –
2.3 ± 0.5 | 158 ± 7.3 | 95.6 ± 4.8 | c1cc2cc(c1)CNCCCNCCNCCCNC2 [mB323, 3,7,10,14 Tetraaza-1(2,6)-benzenacyclopentadecaphane] | 428 ± 22.6 | 186 | 3 | 4 | Selectivity Index Amastigote Forms [1]: 25; IC50 ([1]; Leishmania braziliensis): 17.1 ± 1.1 µM
210 ± 5.3 | 106 ± 7.5 | 86.1 ± 3.7 | c1cc2cc(c1)CNCCCNCCCNCCCNC2 [mB333, 3,7,11,15 Tetraaza-1(2,6)-benzenacyclohexadecaphane] | 916 ± 51.6 | 4 | 9 | 11 | –
15.6 ± 0.7 | 126 ± 3.8 | 63.4 ± 2.4 | c1cc2cc(c1)CNCCCNCCNCCNCCCNC2 [mB3223] | 1450 ± 89.7 | 93 | 11 | 23 | –
– | – | – | Glucantime [reference compound] | – | 3 | 7 | 3.5 | Selectivity Index Amastigote Forms [9]: 2; IC50 [9]: 76.4 ± 4.1 µM; Selectivity Index Amastigote Forms [1]: 1.7; IC50 [1]: 103 µM; Selectivity Index Amastigote Forms [2]: 2; IC50 [2]: 84.6 ± 4.3 µM; IC50 [4]: 176 ± 10.6 µM; IC50 [5]: 51.4 ± 2.5 µM; IC50 [6]: 23.7 ± 0.8 µM; IC50 [7]: 50.1 ± 2.3 µM

Molecule | IC50 ([5]; Leishmania braziliensis) [µM] | IC50 ([6]; Leishmania donovani) [µM] | IC50 ([7]; Leishmania infantum) [µM] | IC50 ([4]; Mus musculus) [µM] | Selectivity Index Promastigote Forms [5] | Selectivity Index Promastigote Forms [6] | Selectivity Index Promastigote Forms [7] | further results
c1cc2ccc1CNCCNCCCNCCNC2 [pB232] | 27.2 ± 0.9 | 743 ± 23.6 | 367 ± 10.5 | 719 ± 20.5 | 26 | 1 | 2 | –

Source: PMC10059905, “The Bioactivity of Xylene, Pyridine, and Pyrazole Aza Macrocycles against Three Representative Leishmania Species” (Pharmaceutics, 2023)
